The source of these data is patent US8962630B2, “Pyrrolopyrimidine compounds and their uses” (Novartis AG, priority 2008, dated 2015).

Where two headings read alike, the source gives them in different places. A value given as a limit tells only on which side of the number the result lay.

For assay [1], the target named is CDK4/cyclin D1 (Homo sapiens (Human), UniProt P11802). Briefly: CDK4/Cyclin D1 enzymatic activity assay (Lance TR-FRET). It is filed as biochemical. In outline:
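IC50 from a TR-FRET endpoint read of phospho-pRb(S780) after EDTA quench. Reaction: 60 min, room temperature, 3 μM ATP, 175 nM pRb152 substrate, 0.3 nM Sf21-derived His6-CDK4/GST-cyclin D1, pH 7.5 HEPES with MgCl2/MnCl2, 2% DMSO, inhibitor 0.005-10 μM.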

The subject of assay [2] is pRb negative cells. Briefly: cell proliferation of pRb negative cells. It is filed as cell-based. The note with it: high concentrations.
The subject of assay [3] is cell cycle. Briefly: cell cycle analysis. It is filed as cell-based. The conditions noted are these: up to 10 uM.
Assay [4] concerns the target CDK2/cyclin A (Homo sapiens (Human), UniProt P24941). The assay can be described thus: CDK2/Cyclin A enzymatic activity assay (IMAP-FP). The assay is classed as biochemical.
Assay [5] addresses CDK1/cyclin B (Homo sapiens (Human), UniProt P06493). Briefly: CDK1/Cyclin B enzymatic activity assay (IMAP-FP). The assay is classed as biochemical. The source says:
A 384-well microtiter IMAP-FPT™ (Molecular Devices Trade Mark Technology) endpoint assay was used for CDK1/cyclin B kinase activity measurements. The same assay was used for IC50 determination of small molecule inhibitors.

Where [6] appears, read: Table 4, read-out: IC50 (μM) CDK4.
Setting [7] is: Table 4, read-out: IC50 (μM) CDK2.
[8] abbreviates: Table 4, read-out: IC50 (μM) CDK1.
Setting [9] is: Table 2, 3 μM ATP, read-out: CDK4.
[10] abbreviates: Table 2, 20 μM ATP, read-out: CDK1.

Sequence of CDK1/cyclin B (P06493 whole entry, species assumed): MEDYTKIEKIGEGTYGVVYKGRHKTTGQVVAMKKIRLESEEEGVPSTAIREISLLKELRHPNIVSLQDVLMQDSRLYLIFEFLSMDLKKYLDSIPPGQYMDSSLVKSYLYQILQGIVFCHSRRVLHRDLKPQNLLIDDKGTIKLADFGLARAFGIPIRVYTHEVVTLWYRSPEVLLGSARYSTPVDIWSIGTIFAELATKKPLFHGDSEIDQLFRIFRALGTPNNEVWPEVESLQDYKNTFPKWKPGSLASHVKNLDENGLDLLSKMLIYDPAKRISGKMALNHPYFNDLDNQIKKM
Sequence of CDK1/cyclin B (P14635 whole entry partner, species assumed): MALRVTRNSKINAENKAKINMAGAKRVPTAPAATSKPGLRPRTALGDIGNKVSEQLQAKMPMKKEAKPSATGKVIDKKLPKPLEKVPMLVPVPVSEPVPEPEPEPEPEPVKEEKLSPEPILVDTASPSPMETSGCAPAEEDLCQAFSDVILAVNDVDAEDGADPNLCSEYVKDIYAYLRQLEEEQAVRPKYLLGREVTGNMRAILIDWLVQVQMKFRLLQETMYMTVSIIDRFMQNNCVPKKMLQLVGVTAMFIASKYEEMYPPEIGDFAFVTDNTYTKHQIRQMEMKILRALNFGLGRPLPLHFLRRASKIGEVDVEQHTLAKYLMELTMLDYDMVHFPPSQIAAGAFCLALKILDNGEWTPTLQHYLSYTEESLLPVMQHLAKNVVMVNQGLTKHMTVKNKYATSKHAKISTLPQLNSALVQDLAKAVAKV
Sequence of CDK4/cyclin D1 (P11802 whole entry): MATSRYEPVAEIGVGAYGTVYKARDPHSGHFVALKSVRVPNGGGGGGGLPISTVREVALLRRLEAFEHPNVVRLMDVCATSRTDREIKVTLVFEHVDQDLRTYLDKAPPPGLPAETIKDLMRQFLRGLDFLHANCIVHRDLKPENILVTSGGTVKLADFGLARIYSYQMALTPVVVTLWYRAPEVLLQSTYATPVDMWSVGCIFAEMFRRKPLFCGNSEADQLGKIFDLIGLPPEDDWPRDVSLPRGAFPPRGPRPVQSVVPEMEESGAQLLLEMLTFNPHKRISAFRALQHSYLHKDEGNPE
Sequence of CDK4/cyclin D1 (P24385 whole entry partner): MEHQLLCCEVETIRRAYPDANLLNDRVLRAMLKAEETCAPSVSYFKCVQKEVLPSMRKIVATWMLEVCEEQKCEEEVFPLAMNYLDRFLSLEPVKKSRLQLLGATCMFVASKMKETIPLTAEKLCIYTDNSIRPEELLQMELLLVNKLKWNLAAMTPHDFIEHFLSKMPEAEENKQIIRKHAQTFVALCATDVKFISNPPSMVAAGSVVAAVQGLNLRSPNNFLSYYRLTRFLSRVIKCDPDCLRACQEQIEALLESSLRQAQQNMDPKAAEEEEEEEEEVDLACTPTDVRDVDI

Turning to `CN(C)C(=O)c1cc2cnc(Nc3ccc(N4CCNCC4)cc3)nc2n1C1CCCC1` [Example 200, reference compound], the IC50 is 0.005 µM in assay [1] (setting [6]), > 1.4 µM in assay [4] (setting [7]) and > 1.6 µM in assay [5] (setting [8]). Also, the “inhibition of cell proliferation of pRb negative cells” value in assay [2] is on record as “does inhibit the cell proliferation of pRb negative cells at high concentrations”. The “cell cycle arrest phase” value in assay [3] was “starts to induce G2/M phase blocks at 1 and 10 uM concentrations”.

As to `C[C@H]1CN(Cc2ccc(Nc3ncc4cc(C(=O)N(C)C)n(C5CCCC5)c4n3)nc2)CCN1` [Example 55, 7-Cyclopentyl-2-[5-((S)-3-methyl-piperazin-1-ylmethyl)-pyridin-2-ylamino]-7H-pyrrolo[2,3-d]pyrimidine-6-carboxylic acid dimethylamide], the IC50 in assay [1] (setting [9]) was 0.01 to 0.1 µM; in assay [4] (Table 2, read-out: CDK2), > 15 µM; in assay [5] (setting [10]) it was > 15 µM.

Take `CN(C)C(=O)c1cc2cnc(Nc3ccc(N4CCN(CCC#N)CC4)cn3)nc2n1C1CCCC1` [Example 9, 2-{5-[4-(2-Cyano-ethyl)-piperazin-1-yl]-pyridin-2-ylamino}-7-cyclopentyl-7H-pyrrolo[2,3-d]pyrimidine-6-carboxylic acid dimethylamide]: the IC50 was 0.01 to 0.1 µM in assay [1] (setting [9]); > 15 µM in assay [4] (Table 2, read-out: CDK2); > 15 µM in assay [5] (setting [10]).

On to `CN(C)C(=O)c1cc2cnc(Nc3ccc(CN4CCN(C)C(=O)C4)cn3)nc2n1C1CCCC1` [Example 60, 7-Cyclopentyl-2-[5-(4-methyl-3-oxo-piperazin-1-ylmethyl)-pyridin-2-ylamino]-7H-pyrrolo[2,3-d]pyrimidine-6-carboxylic acid dimethylamide], for which the IC50 in assay [1] (setting [9]) was 0.1 to 1 µM; in assay [4] (Table 2, read-out: CDK2), > 15 µM; in assay [5] (setting [10]), > 15 µM.

`CN(C)C(=O)c1cc2cnc(Nc3ccc(N4CCNC(C)(C)C4)cn3)nc2n1C1CCCC1` [Example 72, 7-Cyclopentyl-2-[5-(3,3-dimethyl-piperazin-1-yl)-pyridin-2-ylamino]-7H-pyrrolo[2,3-d]pyrimidine-6-carboxylic acid dimethylamide]: the IC50 in assay [1] (setting [9]) is 0.01 to 0.1 µM; in assay [4] (Table 2, read-out: CDK2), > 15 µM; in assay [5] (setting [10]) it was > 15 µM.

As to `CN(C)CC(=O)N1CCN(c2ccc(Nc3ncc4cc(C(=O)N(C)C)n(C5CCCC5)c4n3)nc2)CC1` [Example 88, 7-Cyclopentyl-2-{5-[4-(2-dimethylamino-acetyl)-piperazin-1-yl]-pyridin-2-ylamino}-7H-pyrrolo[2,3-d]pyrimidine-6-carboxylic acid dimethylamide], the IC50 in assay [1] (setting [9]) was 0.001 to 0.01 µM; in assay [4] (Table 2, read-out: CDK2) it was > 15 µM; in assay [5] (setting [10]), > 15 µM.

Turning to `CN(C)C(=O)c1cc2cnc(Nc3ccc(N4CCN(CCO)CC4)cn3)nc2n1C1CCCC1` [Example 26, 7-Cyclopentyl-2-{5-[4-(2-hydroxy-ethyl)-piperazin-1-yl]-pyridin-2-ylamino}-7H-pyrrolo[2,3-d]pyrimidine-6-carboxylic acid dimethylamide], the IC50 was 0.01 to 0.1 µM in assay [1] (setting [9]); 0.026 µM in assay [1] (setting [6]); > 15 µM in assay [4] (Table 2, read-out: CDK2); > 15 µM in assay [4] (setting [7]); > 15 µM in assay [5] (setting [10]); > 15 µM in assay [5] (setting [8]).

As to `COC(=O)C(C)N1CCN(c2ccc(Nc3ncc4cc(C(=O)N(C)C)n(C5CCCC5)c4n3)nc2)CC1` (centres unmarked) [Example 101, 2-{4-[6-(7-Cyclopentyl-6-dimethylcarbamoyl-7H-pyrrolo[2,3-d]pyrimidin-2-ylamino)-pyridin-3-yl]-piperazin-1-yl}-propionic acid methyl ester], the IC50 was 0.1 to 1 µM in assay [1] (setting [9]); > 15 µM in assay [4] (Table 2, read-out: CDK2); > 15 µM in assay [5] (setting [10]).

In the case of `CN(C)C(=O)c1cc2cnc(Nc3ccc(C(=O)N4CCNCC4)cn3)nc2n1C1CCCC1` [Example 49, 7-Cyclopentyl-2-[5-(piperazine-1-carbonyl)-pyridin-2-ylamino]-7H-pyrrolo[2,3-d]pyrimidine-6-carboxylic acid dimethylamide], the IC50 was 0.01 to 0.1 µM in assay [1] (setting [9]); > 15 µM in assay [4] (Table 2, read-out: CDK2); > 15 µM in assay [5] (setting [10]).

Turning to `C[C@@H]1CN(Cc2ccc(Nc3ncc4cc(C(=O)N(C)C)n(C5CCCC5)c4n3)nc2)C[C@H](C)N1` [Example 75, 7-Cyclopentyl-2-[5-((3S,5R)-3,5-dimethyl-piperazin-1-ylmethyl)-pyridin-2-ylamino]-7H-pyrrolo[2,3-d]pyrimidine-6-carboxylic acid dimethylamide], the IC50 is 0.01 to 0.1 µM in assay [1] (setting [9]); > 15 µM in assay [4] (Table 2, read-out: CDK2); > 15 µM in assay [5] (setting [10]).

As for `CC(=O)N1CCN(Cc2ccc(Nc3ncc4cc(C(=O)N(C)C)n(C5CCCC5)c4n3)nc2)CC1` [Example 61, 2-[5-(4-Acetyl-piperazin-1-ylmethyl)-pyridin-2-ylamino]-7-cyclopentyl-7H-pyrrolo[2,3-d]pyrimidine-6-carboxylic acid dimethylamide], the IC50 was 0.1 to 1 µM in assay [1] (setting [9]); > 15 µM in assay [4] (Table 2, read-out: CDK2); > 15 µM in assay [5] (setting [10]).

As to `CN(C)C(=O)c1cc2cnc(Nc3ccc(N4CCCNCC4)cn3)nc2n1C1CCCC1` [Example 8, 7-Cyclopentyl-2-(5-[1,4]diazepan-1-yl-pyridin-2-ylamino)-7H-pyrrolo[2,3-d]pyrimidine-6-carboxylic acid dimethylamide], the IC50 in assay [1] (setting [9]) was 0.01 to 0.1 µM; in assay [4] (Table 2, read-out: CDK2), 8 µM; in assay [5] (setting [10]), 14 µM.

Take `CN(C)C(=O)c1cc2cnc(Nc3ccc(N4CCN(CC(N)=O)CC4)cn3)nc2n1C1CCCC1` [Example 10, 2-[5-(4-Carbamoylmethyl-piperazin-1-yl)-pyridin-2-ylamino]-7-cyclopentyl-7H-pyrrolo[2,3-d]pyrimidine-6-carboxylic acid dimethylamide]: the IC50 in assay [1] (setting [9]) is 0.01 to 0.1 µM; in assay [4] (Table 2, read-out: CDK2), > 15 µM; in assay [5] (setting [10]) it was > 15 µM.

Regarding `CC(C(=O)O)N1CCN(c2ccc(Nc3ncc4cc(C(=O)N(C)C)n(C5CCCC5)c4n3)nc2)CC1` (centres unmarked) [Example 103, 2-{4-[6-(7-Cyclopentyl-6-dimethylcarbamoyl-7H-pyrrolo[2,3-d]pyrimidin-2-ylamino)-pyridin-3-yl]-piperazin-1-yl}-propionic acid], the IC50 in assay [1] (setting [9]) was 0.01 to 0.1 µM; in assay [4] (Table 2, read-out: CDK2), > 15 µM; in assay [5] (setting [10]), > 15 µM.

As for `C[C@H](CO)NCc1ccc(Nc2ncc3cc(C(=O)N(C)C)n(C4CCCC4)c3n2)nc1` [Example 66, 7-Cyclopentyl-2-{5-[((R)-2-hydroxy-1-methyl-ethylamino)-methyl]-pyridin-2 lamino}-7H-pyrrolo[2,3-d]pyrimidine-6-carboxylic acid dimethylamide], the IC50 in assay [1] (setting [9]) was 0.01 to 0.1 µM; in assay [4] (Table 2, read-out: CDK2) it was > 15 µM; in assay [5] (setting [10]), > 15 µM.

With `C[C@H]1CN(c2ccc(Nc3ncc4cc(C(=O)N(C)C)n(C5CCCC5)c4n3)nc2)CCN1C(=O)OC(C)(C)C` [Example 31, (S)-4-[6-(7-Cyclopentyl-6-dimethylcarbamoyl-7H-pyrrolo[2,3-d]pyrimidin-2-ylamino)-pyridin-3-yl]-2-methyl-piperazine-1-carboxylic acid tert-butyl ester], the IC50 in assay [1] (setting [9]) was 0.1 to 1 µM; in assay [4] (Table 2, read-out: CDK2) it was > 15 µM; in assay [5] (setting [10]), > 15 µM.
